This note sets out measurements from US20230263851A1, “PROTECTIVE FORMULATIONS” (priority 2022, published 2023).

Each structure is given as a SMILES string.

This assay concerns upside-down jellyfish, family Cassiopeidae. Put plainly: In vivo field study: perceived stinging sensation after contact with upside-down jellyfish. Particulars: for Sting score, Left calf: skin location left calf; for Average Sting Score: average over tested skin locations; for Sting score, Lower arm, left: perceived sting: 0 no sting, compound in SPF15 TeekaTan oil-in-water sunscreen base, skin location lower arm; for Reduction of the stinging sensation (in words): summary of the field study; for Sting score, Upper arm, left: skin location upper arm. The protocol:
An in-vivo field study was performed using upside-down jellyfish, family Cassiopeidae. Rubidium iodide and dl-menthol were compared to lanthanide salts and another alkali salt, cesium iodide, for their ability to reduce the dermal irritation following contact with stinging Cnidaria. The base formulation was a commercial SPF15 “TeekaTan™” chemical oil-in-water sunscreen. The null was bare skin. The test subjects reported their perceived stinging sensation from the venomous cassiosomes as no sting (score 0), mild sting (score 1), definite sting (score 2).

Setting [1] is: 0 no sting, 1 mild sting, 2 definite sting, SPF15 sunscreen base.

Regarding `CC(C)[C@@H]1CC[C@@H](C)C[C@H]1O` (racemic) [DL-Menthol, DL menthol], the “Reduction of the stinging sensation (in words)” value is “second most effective compound tested”. For the same compound, under setting [1], the “Sting score, Left calf” value is 0 and the “Average Sting Score” value worked out at 0.23. The “Sting score, Left cheek (face)” value (0 no sting, 1 mild sting, 2 definite sting, SPF15 sunscreen base, skin location left cheek (face)) is recorded as 0. Moreover, where the note is “0 no sting, 1 mild sting, 2 definite sting, SPF15 sunscreen base, skin location left side of chest, underarm”, the “Sting score, Left side of chest, underarm” value was found to be 0. Also, the “Sting score, Left side of lips, upper and lower” value (0 no sting, 1 mild sting, 2 definite sting, SPF15 sunscreen base, skin location left side of lips, upper and lower) is listed as 0. For the same compound, the “Sting score, Right arm joint” value (0 no sting, 1 mild sting, 2 definite sting, SPF15 sunscreen base, skin location right arm joint) is listed as 0.75. In addition, the “Sting score, Right cheek (face)” value (0 no sting, 1 mild sting, 2 definite sting, SPF15 sunscreen base, skin location right cheek (face)) was determined as 0. Besides, under “0 no sting, 1 mild sting, 2 definite sting, SPF15 sunscreen base, skin location right side of chest, underarm”, the “Sting score, Right side of chest, underarm” value stood at 0. For the same compound, the “Sting score, Stomach” value (0 no sting, 1 mild sting, 2 definite sting, SPF15 sunscreen base, skin location stomach) was 0. The “Sting score, Lower arm, left” value (1 mild sting, 2 definite sting) is on record as 0.

Consider `[Cl][Pr]([Cl])[Cl]` [PrCl3, reference compound], for which, under setting [1], the “Sting score, Upper arm, left” value is 0 and the “Average Sting Score” value worked out at 1.00. Also, the “Sting score, Lower arm, left” value (1 mild sting, 2 definite sting) turned out to be 2.

`[Cl][Nd]([Cl])[Cl]` [NdCl3, reference compound]: under setting [1], the “Average Sting Score” value is listed as 2.00. For the same compound, the “Sting score, Lower arm, left” value (1 mild sting, 2 definite sting) is given as 2.

`[I-].[Rb+]` [RuI, rubidium iodide]: under “0 no sting, 1 mild sting, 2 definite sting, SPF15 sunscreen base, skin location left arm joint”, the “Sting score, Left arm joint” value came to 0. Under setting [1], the “Sting score, Left calf” value came to 0; the “Sting score, Upper arm, left” value stood at 0; the “Average Sting Score” value stood at 0.00. The “Sting score, Lower arm, left” value (1 mild sting, 2 definite sting) is 0.

As to `[Cs+].[I-]` [CsI, cesium iodide, reference compound], the “Reduction of the stinging sensation (in words)” value is on record as “did not appreciably reduce the stinging sensation”. Under setting [1], the “Sting score, Upper arm, left” value came out at 2 and the “Average Sting Score” value is given as 2.00.
